What was measured:
[1] = system: 26S protease (chymotrypsin, trypsin- and caspase-like activities); conditions: three proteolytic activities, dose-dependent; cited from earlier work
[2] = system: TNFα-induced NF-κB activation; assay: Luciferase-based in cellulo NF-κB reporter assay; type: cell-based, human; conditions: K562 cells after transfection

O=C(/C=C/c1ccccc1)c1ccc(O)cc1 [Chalcone 7, 4′-Hydroxychalcone]
26S protease inhibition activity (in words) [1]: inhibition activity

COc1cccc(/C=C/C(=O)c2ccccc2O)c1OC [Chalcone 16, 2,3-Dimethoxy-2′-hydroxychalcone]
Cytotoxicity at concentrations which inhibited NF-κB activation (in words) [2]: cytotoxic

— publication PMC3583578 (Oncology Reports, 2012)
